Patent US11369612B2, “Treatment of RSV with combination product” (Janssen Sciences Ireland Unlimited Company, priority 2017, dated 2022)

Test system: rgRSV224
Assay: microbe, parasite or virus in culture
Assay type: cell-based, RSV
Details: for normalized data (GFP response): average across 12 replicates
Description: To evaluate their combined antiviral effect against RSV, in vitro combination studies were performed with Compound A, i.e. 3-({5-chloro-1-[3-(methylsulfonyl)propyl]-1H-indol-2-yl}methyl)-1-(2,2,2-trifluoroethyl)-1,3-dihydro-2H-imidazo[4,5-c]pyridin-2-one, and Compound B, i.e. (1S,2S)-2-[4-[7-cyclopropyl-5-[(1R)-1-methyl-3,4-dihydro-1H-isoquinoline-2-carbonyl]pyrazolo[1,5-a]pyrimidin-2-yl]-3-fluoro-phenyl]cyclopropanecarboxylic acid. In short, 9 concentrations of Compound A were combined with 6 or 7 concentrations of Compound B. HeLa cells were infected with rgRSV224, an engineered RSV strain that encodes for eGFP (Hallak L K, Spillmann D, Collins P L, Peeples M E. Glycosaminoglycan sulfation requirements for respiratory syncytial virus infection; Journal of Virology (2000), 74(22), 10508-13), in the presence of various concentrations of compound A and compound B individually or in combination.
Compound stock solutions were 5 mM in 100% DMSO. First, the compounds were serially diluted in 3-fold dilution series in DMSO. The concentration series were diluted 100-fold in cell culture medium to achieve a combination matrix. 10 μL of these compound solutions were transferred to black 384-well clear-bottom tissue-culture treated plates. Next, 10 μL of a […] HeLa cell suspension was added to achieve 3000 cells per well. Finally, 10 μL of diluted virus stock was added to achieve an MOI of 1. The final DMSO concentration of all wells was 0.5% DMSO. Each combination of compound concentrations was tested in 4 replicates on 3 separate plates, resulting in a total of 12 replicates. The plates were incubated for 3 days at 37° C. in a humidified atmosphere at 5% CO2. The GFP signal was measured with PerkinElmer EnVision apparatus using a 405 nm filter.
The method of Harbron (Statistics in Medicine, 2010, DOI:10.1002/sim3916) was used to assess synergy. Using the Loewe definition, two compounds are characterized as being additive, synergistic or antagonistic by:
where d1 and d2 represent the doses of the two compounds that in combination produce an effect y, and Dy,1 and Dy,2 represent the doses of the two compounds that produce the same effect, y, when administered as a monotherapy. A 3PL model (3-parameter log-logistic model) was used for the monotherapy dose-response data, where the baseline response was fixed at one.
Following Harbron's approach, the following models were fitted to the data: • “Additive”: assuming no interaction between the two compounds • “Uniform”: assuming a constant interaction index τ across all dose combinations • “Linear A”: assuming the interaction index linearly depends on the log 10 dose of compound A: τ=τ1+τ2 log 10(dA) • “Separate A”: assuming the interaction index τ takes a separate value for each dose of compound A
The latter two models were also considered for compound B: • “Linear B”: assuming the interaction index linearly τ depends on the log 10 dose of compound B: τ=τ1+τ2 log 10(dB) • “Separate B”: assuming the interaction index τ takes a separate value for each dose of compound B

CS(=O)(=O)CCCn1c(Cn2c(=O)n(CC(F)(F)F)c3ccncc32)cc2cc(Cl)ccc21 [Compound A, 3-({5-chloro-1-[3-(methylsulfonyl)propyl]-1H-indol-2-yl}methyl)-1-(2,2,2-trifluoroethyl)-1,3-dihydro-2H-imidazo[4,5-c]pyridin-2-one]
normalized data (GFP response) (A = 0.19, B = 0): 1.07 | normalized data (GFP response) (A = 0.57, B = 0): 1.05 | normalized data (GFP response) (A = 1.7, B = 0): 0.99 | normalized data (GFP response) (A = 5.1, B = 0): 0.74 | normalized data (GFP response) (A = 15, B = 0): 0.48 | normalized data (GFP response) (A = 46, B = 0): 0.29 | normalized data (GFP response) (A = 139, B = 0): 0.18 | normalized data (GFP response) (A = 417, B = 0): 0.08 | normalized data (GFP response) (A = 1250, B = 0): 0.06 | EC50 (human respiratory syncytial virus, HeLa, read-out: EC50 (dose at τ EC50)): 13.1 nM

C[C@@H]1c2ccccc2CCN1C(=O)c1cc(C2CC2)n2nc(-c3ccc([C@H]4C[C@@H]4C(=O)O)cc3F)cc2n1 [Compound B, (1S,2S)-2-[4-[7-cyclopropyl-5-[(1R)-1-methyl-3,4-dihydro-1H-isoquinoline-2-carbonyl]pyrazolo[1,5-a]pyrimidin-2-yl]-3-fluoro-phenyl]cyclopropanecarboxylic acid]
normalized data (GFP response) (A = 0, B = 4.6): 1.13 | normalized data (GFP response) (A = 0, B = 14): 1.04 | normalized data (GFP response) (A = 0, B = 42): 0.37 | normalized data (GFP response) (A = 0, B = 125): 0.07 | normalized data (GFP response) (A = 0, B = 375): 0.00 | normalized data (GFP response) (A = 0, B = 1125): 0.00
